# Experimental data reported in the kinase profiling compilation of Christmann-Franck et al. (2016).
# Assays:
# Test in all cases: radiometric filter-binding kinase assay, Kinase HotSpot
# Conditions in all cases: compound 0.5 µM; ATP 10 µM
# ACVR1 (human) = ACVR1 (human) (UniProt Q04771)
# CAMK2B (human) = CAMK2B (human) (UniProt Q13554)
# CDK1 CCNA2 (human) = CDK1 CCNA2 (human) (UniProt P06493+P20248)
# CHEK2 (human) = CHEK2 (human) (UniProt O96017)
# CLK3 (human) = CLK3 (human) (UniProt P49761)
# CSF1R (human) = CSF1R (human) (UniProt P07333)
# DDR2 (human) = DDR2 (human) (UniProt Q16832)
# DYRK4 (human) = DYRK4 (human) (UniProt Q9NR20)
# EPHA2 (human) = EPHA2 (human) (UniProt P29317)
# EPHA4 (human) = EPHA4 (human) (UniProt P54764)
# Chain of EPHA4 (human) (P54764 whole entry, looked up): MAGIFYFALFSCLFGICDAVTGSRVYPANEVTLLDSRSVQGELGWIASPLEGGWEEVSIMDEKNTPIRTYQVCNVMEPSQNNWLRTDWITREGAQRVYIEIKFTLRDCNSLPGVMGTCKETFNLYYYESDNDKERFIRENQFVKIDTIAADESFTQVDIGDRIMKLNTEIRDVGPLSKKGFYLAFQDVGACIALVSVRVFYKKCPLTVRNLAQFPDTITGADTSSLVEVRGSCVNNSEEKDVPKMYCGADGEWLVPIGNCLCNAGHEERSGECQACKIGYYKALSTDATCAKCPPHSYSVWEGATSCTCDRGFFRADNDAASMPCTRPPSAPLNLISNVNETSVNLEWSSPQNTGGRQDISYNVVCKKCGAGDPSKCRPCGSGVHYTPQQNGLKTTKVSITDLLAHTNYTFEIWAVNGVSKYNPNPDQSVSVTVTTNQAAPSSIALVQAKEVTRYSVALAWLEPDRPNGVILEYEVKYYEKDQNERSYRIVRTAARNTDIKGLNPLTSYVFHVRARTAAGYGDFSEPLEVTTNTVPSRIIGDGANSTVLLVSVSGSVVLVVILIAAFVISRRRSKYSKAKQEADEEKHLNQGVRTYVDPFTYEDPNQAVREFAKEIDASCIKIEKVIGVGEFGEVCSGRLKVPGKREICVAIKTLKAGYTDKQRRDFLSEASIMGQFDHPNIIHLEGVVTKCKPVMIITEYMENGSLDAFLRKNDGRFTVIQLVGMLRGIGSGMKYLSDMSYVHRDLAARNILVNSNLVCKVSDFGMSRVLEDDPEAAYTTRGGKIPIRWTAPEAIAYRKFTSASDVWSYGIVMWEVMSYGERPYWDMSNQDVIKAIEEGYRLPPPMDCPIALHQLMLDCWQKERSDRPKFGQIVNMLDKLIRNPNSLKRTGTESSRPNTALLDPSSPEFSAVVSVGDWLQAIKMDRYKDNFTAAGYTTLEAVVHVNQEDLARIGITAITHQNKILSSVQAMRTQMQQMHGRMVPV
# EPHA8 (human) = EPHA8 (human) (UniProt P29322)
# FES (human) = FES (human) (UniProt P07332)
# FGFR4 (human) = FGFR4 (human) (UniProt P22455)
# GSK3B (human) = GSK3B (human) (UniProt P49841)
# HCK (human) = HCK (human) (UniProt P08631)
# HIPK1 (human) = HIPK1 (human) (UniProt Q86Z02)
# INSRR (human) = INSRR (human) (UniProt P14616)
# LTK (human) = LTK (human) (UniProt P29376)
# [1] = system: MAP2K6 (human), P52564 [S207E/T211E]
# Chain of MAP2K6 (human), P52564 [S207E/T211E] (P52564 whole entry S207E/T211E, looked up): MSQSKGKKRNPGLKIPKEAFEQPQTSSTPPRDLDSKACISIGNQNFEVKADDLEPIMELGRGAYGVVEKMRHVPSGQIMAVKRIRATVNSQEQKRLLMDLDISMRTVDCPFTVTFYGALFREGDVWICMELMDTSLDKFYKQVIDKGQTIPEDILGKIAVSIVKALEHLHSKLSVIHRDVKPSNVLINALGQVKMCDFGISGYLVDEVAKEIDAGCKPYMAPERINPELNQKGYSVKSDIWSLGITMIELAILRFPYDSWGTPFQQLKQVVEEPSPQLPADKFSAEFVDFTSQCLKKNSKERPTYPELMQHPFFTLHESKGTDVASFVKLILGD
# MAP3K2 (human) = MAP3K2 (human) (UniProt Q9Y2U5)
# MAP4K4 (human) = MAP4K4 (human) (UniProt O95819)
# MAPK13 (human) = MAPK13 (human) (UniProt O15264)
# MELK (human) = MELK (human) (UniProt Q14680)
# Chain of MELK (human) (Q14680 whole entry, looked up): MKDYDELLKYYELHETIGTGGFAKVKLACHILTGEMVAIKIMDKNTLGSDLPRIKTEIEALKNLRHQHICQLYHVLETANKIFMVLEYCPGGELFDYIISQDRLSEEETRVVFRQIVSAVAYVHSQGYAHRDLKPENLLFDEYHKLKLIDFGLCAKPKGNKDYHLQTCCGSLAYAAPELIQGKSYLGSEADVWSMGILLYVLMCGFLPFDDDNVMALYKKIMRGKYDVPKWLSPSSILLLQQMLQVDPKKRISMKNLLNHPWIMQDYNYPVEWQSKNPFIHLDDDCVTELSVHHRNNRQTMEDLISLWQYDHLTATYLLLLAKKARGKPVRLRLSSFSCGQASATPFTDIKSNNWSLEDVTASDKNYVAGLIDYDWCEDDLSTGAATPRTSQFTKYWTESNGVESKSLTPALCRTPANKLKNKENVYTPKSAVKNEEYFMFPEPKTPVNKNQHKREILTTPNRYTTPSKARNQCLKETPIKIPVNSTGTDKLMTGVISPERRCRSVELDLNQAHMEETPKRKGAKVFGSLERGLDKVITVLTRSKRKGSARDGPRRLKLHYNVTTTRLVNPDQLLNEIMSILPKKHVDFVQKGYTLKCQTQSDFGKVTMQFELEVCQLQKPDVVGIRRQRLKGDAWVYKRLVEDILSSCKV
# MERTK (human) = MERTK (human) (UniProt Q12866)
# MINK1 (human) = MINK1 (human) (UniProt Q8N4C8)
# MKNK2 (human) = MKNK2 (human) (UniProt Q9HBH9)
# MUSK (human) = MUSK (human) (UniProt O15146)
# NUAK1 (human) = NUAK1 (human) (UniProt O60285)
# Chain of NUAK1 (human) (O60285 whole entry, looked up): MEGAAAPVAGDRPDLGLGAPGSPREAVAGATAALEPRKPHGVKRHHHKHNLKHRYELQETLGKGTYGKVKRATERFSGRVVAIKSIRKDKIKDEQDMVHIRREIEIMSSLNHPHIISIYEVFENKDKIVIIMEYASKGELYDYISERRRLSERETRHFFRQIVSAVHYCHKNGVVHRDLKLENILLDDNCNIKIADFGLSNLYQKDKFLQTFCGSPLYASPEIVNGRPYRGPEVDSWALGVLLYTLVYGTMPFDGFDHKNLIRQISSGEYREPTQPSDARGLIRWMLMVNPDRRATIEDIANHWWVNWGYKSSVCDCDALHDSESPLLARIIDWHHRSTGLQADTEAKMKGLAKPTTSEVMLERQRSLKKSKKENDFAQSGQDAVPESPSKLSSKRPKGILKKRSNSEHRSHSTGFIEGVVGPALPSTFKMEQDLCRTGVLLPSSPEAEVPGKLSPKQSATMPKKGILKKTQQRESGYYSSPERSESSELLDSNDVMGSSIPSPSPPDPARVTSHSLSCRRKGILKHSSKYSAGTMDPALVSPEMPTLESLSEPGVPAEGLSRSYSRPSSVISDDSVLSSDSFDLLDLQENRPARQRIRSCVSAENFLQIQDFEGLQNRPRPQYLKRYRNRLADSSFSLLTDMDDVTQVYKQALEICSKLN
# PAK2 (human) = PAK2 (human) (UniProt Q13177)
# PHKG1 (human) = PHKG1 (human) (UniProt Q16816)
# PIM2 (human) = PIM2 (human) (UniProt Q9P1W9)
# PLK1 (human) = PLK1 (human) (UniProt P53350)
# PLK3 (human) = PLK3 (human) (UniProt Q9H4B4)
# PRKCB1 (human) = PRKCB1 (human) (UniProt P05771)
# PRKCI (human) = PRKCI (human) (UniProt P41743)
# PRKG2 (human) = PRKG2 (human) (UniProt Q13237)
# PRKX (human) = PRKX (human) (UniProt P51817)
# ROS1 (human) = ROS1 (human) (UniProt P08922)
# Chain of ROS1 (human) (P08922 whole entry, looked up): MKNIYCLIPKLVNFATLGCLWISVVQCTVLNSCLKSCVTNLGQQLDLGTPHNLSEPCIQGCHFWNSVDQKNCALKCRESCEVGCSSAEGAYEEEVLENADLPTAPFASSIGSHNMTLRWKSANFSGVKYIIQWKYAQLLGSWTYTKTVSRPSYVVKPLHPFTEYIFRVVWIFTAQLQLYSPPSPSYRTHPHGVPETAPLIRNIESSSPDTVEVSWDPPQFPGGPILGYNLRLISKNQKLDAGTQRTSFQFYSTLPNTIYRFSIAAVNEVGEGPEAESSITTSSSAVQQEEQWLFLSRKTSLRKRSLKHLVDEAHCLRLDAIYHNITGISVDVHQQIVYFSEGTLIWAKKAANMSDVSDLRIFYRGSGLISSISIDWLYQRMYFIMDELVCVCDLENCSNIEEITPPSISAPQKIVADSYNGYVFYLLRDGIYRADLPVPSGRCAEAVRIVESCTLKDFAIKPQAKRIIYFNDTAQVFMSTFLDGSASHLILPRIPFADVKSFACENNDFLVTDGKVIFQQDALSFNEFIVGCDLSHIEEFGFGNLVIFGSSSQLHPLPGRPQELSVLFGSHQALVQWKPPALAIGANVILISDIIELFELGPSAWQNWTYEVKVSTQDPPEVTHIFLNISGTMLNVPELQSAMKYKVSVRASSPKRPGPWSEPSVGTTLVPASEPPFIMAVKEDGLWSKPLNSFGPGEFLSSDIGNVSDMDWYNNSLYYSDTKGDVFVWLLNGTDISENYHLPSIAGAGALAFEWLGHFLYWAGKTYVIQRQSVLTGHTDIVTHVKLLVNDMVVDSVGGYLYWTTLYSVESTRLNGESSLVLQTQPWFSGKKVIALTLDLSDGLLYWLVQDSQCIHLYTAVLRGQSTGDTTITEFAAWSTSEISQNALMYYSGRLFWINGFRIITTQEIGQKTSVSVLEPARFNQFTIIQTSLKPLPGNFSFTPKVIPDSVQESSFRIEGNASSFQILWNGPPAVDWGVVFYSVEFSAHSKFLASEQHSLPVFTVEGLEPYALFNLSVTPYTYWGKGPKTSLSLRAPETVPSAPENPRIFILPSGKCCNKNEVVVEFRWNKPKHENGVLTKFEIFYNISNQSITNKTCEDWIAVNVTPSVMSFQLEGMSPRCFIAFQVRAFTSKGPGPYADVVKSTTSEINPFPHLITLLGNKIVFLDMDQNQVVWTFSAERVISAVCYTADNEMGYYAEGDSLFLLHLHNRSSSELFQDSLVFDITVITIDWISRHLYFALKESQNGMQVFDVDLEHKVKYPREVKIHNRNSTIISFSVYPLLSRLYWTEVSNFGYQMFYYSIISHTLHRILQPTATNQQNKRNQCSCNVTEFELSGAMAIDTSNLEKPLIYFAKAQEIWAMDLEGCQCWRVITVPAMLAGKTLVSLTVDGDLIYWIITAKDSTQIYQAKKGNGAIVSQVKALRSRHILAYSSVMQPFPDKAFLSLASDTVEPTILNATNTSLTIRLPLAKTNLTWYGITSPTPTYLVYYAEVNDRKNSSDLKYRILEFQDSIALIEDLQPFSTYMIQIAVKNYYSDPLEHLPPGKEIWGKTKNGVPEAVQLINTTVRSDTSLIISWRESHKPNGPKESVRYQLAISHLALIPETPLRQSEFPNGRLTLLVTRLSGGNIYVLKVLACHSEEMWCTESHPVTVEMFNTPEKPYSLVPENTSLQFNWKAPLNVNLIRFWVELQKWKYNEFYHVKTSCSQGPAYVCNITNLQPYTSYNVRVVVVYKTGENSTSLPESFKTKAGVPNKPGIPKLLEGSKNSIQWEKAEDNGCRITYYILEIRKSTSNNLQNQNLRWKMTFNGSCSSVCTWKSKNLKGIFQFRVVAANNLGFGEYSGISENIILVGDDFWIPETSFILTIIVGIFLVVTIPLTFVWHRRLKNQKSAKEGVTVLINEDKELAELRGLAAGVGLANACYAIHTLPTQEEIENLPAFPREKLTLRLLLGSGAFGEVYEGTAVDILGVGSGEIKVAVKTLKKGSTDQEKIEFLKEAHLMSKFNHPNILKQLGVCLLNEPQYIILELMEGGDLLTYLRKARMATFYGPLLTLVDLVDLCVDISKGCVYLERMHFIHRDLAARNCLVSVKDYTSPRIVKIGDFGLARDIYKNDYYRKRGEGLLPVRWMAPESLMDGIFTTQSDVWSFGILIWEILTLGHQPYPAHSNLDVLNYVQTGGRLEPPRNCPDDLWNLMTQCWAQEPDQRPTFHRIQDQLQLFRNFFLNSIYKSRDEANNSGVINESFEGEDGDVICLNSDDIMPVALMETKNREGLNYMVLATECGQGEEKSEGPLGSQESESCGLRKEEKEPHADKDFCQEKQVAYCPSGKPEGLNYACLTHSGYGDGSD
# SRMS (human) = SRMS (human) (UniProt Q9H3Y6)
# STK10 (human) = STK10 (human) (UniProt O94804)
# TGFBR2 (human) = TGFBR2 (human) (UniProt P37173)
# WNK3 (human) = WNK3 (human) (UniProt Q9BYP7)
smiles,measurement,setting,value
COc1ccc(C(=O)Nc2sc3c(c2C(N)=O)CCCC3)cc1OC,residual activity,ACVR1 (human),159%
same,residual activity,CAMK2B (human),99.9%
same,residual activity,CDK1 CCNA2 (human),105%
same,residual activity,CHEK2 (human),93%
same,residual activity,CLK3 (human),63%
same,residual activity,CSF1R (human),90.2%
same,residual activity,DDR2 (human),102%
same,residual activity,DYRK4 (human),98.5%
same,residual activity,EPHA2 (human),102%
same,residual activity,EPHA4 (human),104%
same,residual activity,EPHA8 (human),114%
same,residual activity,FES (human),102%
same,residual activity,FGFR4 (human),105%
same,residual activity,GSK3B (human),97.7%
same,residual activity,HCK (human),109%
same,residual activity,HIPK1 (human),90.2%
same,residual activity,INSRR (human),99.7%
same,residual activity,LTK (human),40.5%
same,residual activity,[1],114%
same,residual activity,MAP3K2 (human),105%
same,residual activity,MAP4K4 (human),79.9%
same,residual activity,MAPK13 (human),109%
same,residual activity,MELK (human),46%
same,residual activity,MERTK (human),85.4%
same,residual activity,MINK1 (human),85%
same,residual activity,MKNK2 (human),78.7%
same,residual activity,MUSK (human),79.4%
same,residual activity,NUAK1 (human),81.8%
same,residual activity,PAK2 (human),99.1%
same,residual activity,PHKG1 (human),94.3%
same,residual activity,PIM2 (human),98.5%
same,residual activity,PLK1 (human),99%
same,residual activity,PLK3 (human),95%
same,residual activity,PRKCB1 (human),91.8%
same,residual activity,PRKCI (human),91.8%
same,residual activity,PRKG2 (human),104%
same,residual activity,PRKX (human),101%
same,residual activity,ROS1 (human),78.8%
same,residual activity,SRMS (human),91%
same,residual activity,STK10 (human),93.9%
same,residual activity,TGFBR2 (human),134%
same,residual activity,WNK3 (human),96.4%
N#Cc1c[nH]c2c[nH]/c(=N\Cc3cccnc3)cc2/c1=N\c1ccc(F)c(Cl)c1,residual activity,ACVR1 (human),95.6%
same,residual activity,CAMK2B (human),97.4%
same,residual activity,CDK1 CCNA2 (human),88%
same,residual activity,CHEK2 (human),90.5%
same,residual activity,CLK3 (human),96.7%
same,residual activity,CSF1R (human),96.3%
same,residual activity,DDR2 (human),91.9%
same,residual activity,DYRK4 (human),84.4%
same,residual activity,EPHA2 (human),102%
same,residual activity,EPHA4 (human),92.8%
same,residual activity,EPHA8 (human),91.2%
same,residual activity,FES (human),108%
same,residual activity,FGFR4 (human),92.6%
same,residual activity,GSK3B (human),99.8%
same,residual activity,HCK (human),92.5%
same,residual activity,HIPK1 (human),98.6%
same,residual activity,INSRR (human),97%
same,residual activity,LTK (human),95.6%
same,residual activity,[1],115%
same,residual activity,MAP3K2 (human),81.2%
same,residual activity,MAP4K4 (human),44.4%
same,residual activity,MAPK13 (human),101%
same,residual activity,MELK (human),88%
same,residual activity,MERTK (human),67.2%
same,residual activity,MINK1 (human),77.5%
same,residual activity,MKNK2 (human),79.3%
same,residual activity,MUSK (human),55.6%
same,residual activity,NUAK1 (human),103%
same,residual activity,PAK2 (human),66.6%
same,residual activity,PHKG1 (human),92%
same,residual activity,PIM2 (human),101%
same,residual activity,PLK1 (human),92.6%
same,residual activity,PLK3 (human),91.1%
same,residual activity,PRKCB1 (human),104%
same,residual activity,PRKCI (human),94.7%
same,residual activity,PRKG2 (human),90.9%
same,residual activity,PRKX (human),101%
same,residual activity,ROS1 (human),98.3%
same,residual activity,SRMS (human),104%
same,residual activity,STK10 (human),52.8%
same,residual activity,TGFBR2 (human),118%
same,residual activity,WNK3 (human),92.4%
COc1ccc2c(c1)c(C1=C(c3c[nH]c4ccccc34)C(=O)NC1=O)cn2CCCN(C)C,residual activity,ACVR1 (human),98%
same,residual activity,CAMK2B (human),89.9%
same,residual activity,CDK1 CCNA2 (human),95.7%
same,residual activity,CHEK2 (human),38.8%
same,residual activity,CLK3 (human),43.6%
same,residual activity,CSF1R (human),92.8%
same,residual activity,DDR2 (human),101%
same,residual activity,DYRK4 (human),97.3%
same,residual activity,EPHA2 (human),91.3%
same,residual activity,EPHA4 (human),94.5%
same,residual activity,EPHA8 (human),102%
same,residual activity,FES (human),120%
same,residual activity,FGFR4 (human),79.2%
same,residual activity,GSK3B (human),32%
same,residual activity,HCK (human),111%
same,residual activity,HIPK1 (human),77.7%
same,residual activity,INSRR (human),101%
same,residual activity,LTK (human),81.9%
same,residual activity,[1],91.6%
same,residual activity,MAP3K2 (human),80.6%
same,residual activity,MAP4K4 (human),37.8%
same,residual activity,MAPK13 (human),108%
same,residual activity,MELK (human),70.7%
same,residual activity,MERTK (human),84%
same,residual activity,MINK1 (human),78.6%
same,residual activity,MKNK2 (human),81.1%
same,residual activity,MUSK (human),53.5%
same,residual activity,NUAK1 (human),32.2%
same,residual activity,PAK2 (human),108%
same,residual activity,PHKG1 (human),66.4%
same,residual activity,PIM2 (human),90.5%
same,residual activity,PLK1 (human),104%
same,residual activity,PLK3 (human),93%
same,residual activity,PRKCB1 (human),19.3%
same,residual activity,PRKCI (human),67.6%
same,residual activity,PRKG2 (human),60.7%
same,residual activity,PRKX (human),102%
same,residual activity,ROS1 (human),52.4%
same,residual activity,SRMS (human),95.9%
same,residual activity,STK10 (human),31.7%
same,residual activity,TGFBR2 (human),120%
same,residual activity,WNK3 (human),92%
COc1cc2ncnc(Nc3ccc(Oc4ccccc4)cc3)c2cc1OC,residual activity,ACVR1 (human),93.7%
same,residual activity,CAMK2B (human),98.2%
same,residual activity,CDK1 CCNA2 (human),92.2%
same,residual activity,CHEK2 (human),29.6%
same,residual activity,CLK3 (human),101%
same,residual activity,CSF1R (human),100%
same,residual activity,DDR2 (human),97.9%
same,residual activity,DYRK4 (human),97.3%
same,residual activity,EPHA2 (human),106%
same,residual activity,EPHA4 (human),106%
same,residual activity,EPHA8 (human),97.4%
same,residual activity,FES (human),99.6%
same,residual activity,FGFR4 (human),77.8%
same,residual activity,GSK3B (human),109%
same,residual activity,HCK (human),13.5%
same,residual activity,HIPK1 (human),102%
same,residual activity,INSRR (human),102%
same,residual activity,LTK (human),98.3%
same,residual activity,[1],102%
same,residual activity,MAP3K2 (human),102%
same,residual activity,MAP4K4 (human),90.5%
same,residual activity,MAPK13 (human),103%
same,residual activity,MELK (human),101%
same,residual activity,MERTK (human),51.2%
same,residual activity,MINK1 (human),101%
same,residual activity,MKNK2 (human),47.9%
same,residual activity,MUSK (human),89.8%
same,residual activity,NUAK1 (human),105%
same,residual activity,PAK2 (human),78.7%
same,residual activity,PHKG1 (human),91.8%
same,residual activity,PIM2 (human),107%
same,residual activity,PLK1 (human),96.4%
same,residual activity,PLK3 (human),97.1%
same,residual activity,PRKCB1 (human),109%
same,residual activity,PRKCI (human),108%
same,residual activity,PRKG2 (human),98.3%
same,residual activity,PRKX (human),95.2%
same,residual activity,ROS1 (human),95.3%
same,residual activity,SRMS (human),31.6%
same,residual activity,STK10 (human),74%
same,residual activity,TGFBR2 (human),137%
same,residual activity,WNK3 (human),87.8%
